Experiments:
dKO mice = assay: Maraviroc treatment of dystrophic dKO (YY1; mdx) and Ctrl mice, DMD mouse model; format: in vivo; details: for voluntary exercise (running distance on exercise wheels): recorded daily for one week, FIG. 6
Description: The research object of this invention is based on a mouse model of human Duchenne muscular dystrophy (DMD), a congenital mutation in the muscular dystrophy protein leading to spontaneous periodic muscle damage and repair. Chronic inflammation and fibrosis are typical hallmarks of DMD and may contribute to impaired skeletal muscle regeneration. […] These YY1; mdx mice (so called double knock out dKO) display decreased body and muscle weight, severe inflammation and fibrosis, and reduced lifespan. As illustrated in FIGS. 1A-1D, the body weights are continuously monitored and measured at 3M, 5M and 7M intervals and the dKO mice show continuous weight loss compared to Ctrl mice (see FIG. 1A) as time progresses. Furthermore, the reduction in muscle weight (tibialis anterior) and thickness (diaphragm) is also observed over time in contrast to Ctrl mice (see FIG. 1B). […] Meanwhile, excessive inflammation is observed on the dKO muscles as shown by the amount of immune cells infiltration in the interstitial area (see FIG. 1C), along with aggravated fibrosis (detected by Masson's Trichrome staining, see FIG. 1D).
To test the therapeutic effect of Maraviroc on the dystrophic muscles, the above-described Ctrl and dKO mice are treated with dimethyl sulfoxide (DMSO) or Maraviroc respectively.
Next, the muscle morphology is evaluated on the above-treated four groups of mice.
Next it is examined if the treatment improves muscle functions by testing the muscle performance in exercises. Both endurance and voluntary exercises are employed. For endurance exercise, mice are first placed in a treadmill machine, where the bottom of the running track is equipped with an electric shock device to force the mice to continue running as illustrated in FIG. 5. The initial speed is set to 10 cm/s and increased by 5 cm/s every two minutes. By recording the running distance until the mice are exhausted, their endurance strength is determined. […] For voluntary exercise, the mice are placed in cages equipped with exercise wheels, which are connected to counters that accurately record the distance travelled by the mice on the wheels, as illustrated in FIG. 6. The mice are continuously housed in the cages for one week, and their exercise distance on the wheels is recorded daily.

[1] = tested on: aged mice with sarcopenia; assay: Maraviroc treatment of aged mice with sarcopenia; format: in vivo, mouse; details: 16-month-old mice, 2.5 mg/kg intraperitoneally twice a week for 6 months
Description: Next, to further illustrate the possible application for treating other muscle degenerative diseases, the effectiveness of Maraviroc is tested in aged mice with sarcopenia. 3 pairs of 16-month-old mice are intraperitoneally injected with vehicle (5% DMSO) or Maraviroc (2.5 mg/kg) twice a week for 6 months, as shown in FIG. 7. […] Overall, the Maraviroc treatment delays muscle aging and rejuvenates the mice.

[2] = Phase IIa study; cited from earlier work
[3] = dKO mice, 60 ug in 5% DMSO intraperitoneally every two days for one month, FIG. 2

Cc1nnc(C(C)C)n1[C@@H]1C[C@H]2CC[C@@H](C1)N2CC[C@H](NC(=O)C1CCC(F)(F)CC1)c1ccccc1 [Maraviroc]
muscle morphology, immune cell infiltration and inflammation (H&E staining of TA muscles) (dKO mice; Ctrl and dKO muscles, FIG. 3): improved morphology with reduced immune cell infiltration and inflammation
effect on body weight of Ctrl mice (dKO mice; Ctrl mice, 60 ug intraperitoneally every two days for one month, FIG. 2): no obvious effect
voluntary exercise (running distance on exercise wheels) (dKO mice; Ctrl mice): high level of voluntary exercise
endurance strength (treadmill running distance until exhausted) (dKO mice; dKO mice, versus dKO mice treated with DMSO, FIG. 5): significantly higher
body weight (dKO mice; [3]): significantly restored
muscle weight (dKO mice; [3]): significantly restored
muscle fibrosis (Masson's Trichrome staining) (dKO mice; dKO mice, FIG. 4): significantly alleviate
voluntary exercise (running distance on exercise wheels) (dKO mice; dKO mice): consistent increase in running distance over time
TA muscle weight ([1]; FIG. 8): restored
fiber size ([1]; FIG. 8): increased
inflammation ([1]; FIG. 8): attenuated
muscle morphology (H&E staining) ([1]; FIG. 8): remarkable improvement
muscle functions (grip force and treadmill running) ([1]; FIG. 9): restored
number of FAPs and macrophages ([1]; FIG. 10): reduced number
number of MuSCs ([1]; FIG. 10): increased number
efficacy in the treatment of RA [2]: no efficacy

From patent US20240316027A1, “USE OF MARAVIROC IN PREPARATION OF DRUGS FOR TREATMENT OF MUSCLE DEGENERATIVE DISEASES” (Center for Neuromusculoskeletal Restorative Medicine Limited, priority 2023, published 2024)
